Reference: patent US8470765B2, “Polypeptides and antibacterial or antiseptic use of same” (AnGes MG, Inc., priority 2009, dated 2013)
Converted amounts (≈) assume the structure as drawn. Like-named read-outs stand apart in the source and are kept apart here. No end group written: not given here.

How the values were obtained:
[1] = test system: methicillin-sensitive Staphylococcus (MSSA) MSSA(ii); assay: organism not typed; conditions: for MIC: read-out: MIC MSSA(ii)
Experimental: (§1) Bacteria (Escherichia coli ATCC 25922, Pseudomonas aeruginosa ATCC 27853, Staphylococcus aureus ATCC29213, Klebsiella pneumoniae JCM 1662, Enterobacter cloacae JCM 1232, Enterobacter aerogenes JCM 1235 and Staphylococcus epidermidis JCM 2414) were inoculated to Mueller-Hinton broth: MHB or LB medium, and cultured at a temperature and period suited for each strain. From the thus obtained colonies, each strain was inoculated to a fresh liquid medium and cultured for 16 to 20 hours. Then an aliquot having a volume (10 to 50 appropriate to each strain was inoculated to a fresh liquid medium and cultured for 4 to 6 hours, followed by the measurement of the absorbance at 600 nm. After comparing the turbidity with McFarland #0.5, the resultant was diluted with a medium. Each strain was added to about 10^5 CFU/mL (final concentration).
(§2) Further, the antibacterial activities against the clinical strains collected and isolated from infected patients were also examined. The tests were carried out for two methicillin-resistant Staphylococcus (MRSA) (MRSA (i) and (ii)), two methicillin-sensitive Staphylococcus (MSSA) (MSSA (i) and (ii)), five Pseudomonas aeruginosa, Pseudomonas aeruginosa 1, Pseudomonas aeruginosa 6, Pseudomonas aeruginosa 8. Pseudomonas aeruginosa 9 and Pseudomonas aeruginosa 12, totally 9 clinical strains. The MRSA and MSSA clinical strains were tested by the same method as Staphylococcus aureus ATCC29213, and Pseudomonas clinical strains were tested by the same method as Pseudomonas aeruginosa ATCC 27853.
(§3) Each of the peptide solutions to be tested was diluted with MHB to obtain a solution of 128 μg/mL. This solution was serially diluted with the medium to prepare peptide-containing media having concentrations of 128, 64, 32, 16, 8.0, 4.0 and 2.0 μg/mL respectively. […] By dilution with sterilized purified water to 1.0 mg/mL, positive control-containing media having concentrations of 16, 8, 4, 2, 1.0, 0.25, 0.12 and 0.06 μg/mL, respectively for TOB; 0.5, 0.12 and 0.06 μg/mL, respectively, for OX; and 16, 8, 4, 2, 1.0, 0.25, 0.12, 0.06, 0.06, 0.03 and 0.008 μg/mL, respectively, for MEPM, were prepared.
(§4) To a 96-well microtiter plate, 0.1 mL of the inoculation solution and 0.1 mL of the peptide- or positive control-containing medium having the respective concentration were added, and cultured at 37° C. for 16 to 24 hours (or a time period suited for the growth of the respective strain). The well not containing the sample was used as a negative control. After the culturing, the growth was visually observed, and the minimum concentration at which the growth was inhibited was defined as the minimum growth inhibition concentration (MIC).
(§5) The medium used in this test for bacteria was Mueller-Hinton broth. Independent experiments were carried out twice or more for each strain.

[2] = test system: methicillin-resistant Staphylococcus (MRSA) MRSA(i); assay: organism not typed; conditions: for MIC: read-out: MIC MRSA(i)
Experimental: as §1, §2, §3, §4, §5

[3] = test system: Klebsiella pneumoniae JCM 1662; assay: microbe, parasite or virus in culture; assay type: cell-based; conditions: for MIC: Klebsiella pneumoniae, JCM1662
Procedure, shortened: (§6)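 Broth microdilution in Mueller-Hinton broth with about 10^5 CFU/mL final inoculum, prepared from log-phase cultures adjusted to McFarland 0.5. Peptides were diluted in MHB from 128 μg/mL and incubated with cells at 37° C for 16 to 24 hours. MIC was the lowest concentration with no visible growth.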

[4] = test system: Staphylococcus aureus ATCC29213; assay: microbe, parasite or virus in culture; assay type: cell-based; conditions: for MIC: Staphylococcus aureus, ATCC29213, read-out: MIC Staphylococcus aureus, Table 4, two tests, first/second value where not identical; for MIC Staphylococcus aureus: ATCC29213
Procedure, shortened: as §6

[5] = test system: Enterobacter aerogenes JCM 1235; assay: microbe, parasite or virus in culture; assay type: cell-based; conditions: for MIC: Klebsiella aerogenes, JCM1235
Procedure, shortened: as §6

[6] = test system: Staphylococcus epidermidis JCM 2414; assay: microbe, parasite or virus in culture; assay type: cell-based; conditions: for MIC: Staphylococcus epidermidis, JCM2414, read-out: MIC Staphylococcus epidermidis
Procedure, shortened: as §6

[7] = test system: Pseudomonas aeruginosa ATCC 27853; assay: microbe, parasite or virus in culture; assay type: cell-based; conditions: for MIC: Pseudomonas aeruginosa, ATCC27853, read-out: MIC Pseudomonas aeruginosa
Procedure, shortened: as §6

[8] = test system: Escherichia coli ATCC 25922; assay: microbe, parasite or virus in culture; assay type: cell-based; conditions: for MIC: Escherichia coli, ATCC25922, read-out: MIC Escherichia coli, Table 4, two tests, first/second value where not identical; for MIC Escherichia coli: ATCC 25922
Procedure, shortened: as §6

[9] = test system: Micrococcus luteus NBRC13867
[10] = test system: Trichophyton mentagrophytes NBRC6124; conditions: NBRC6124
[11] = test system: methicillin-sensitive Staphylococcus (MSSA) MSSA(i); assay: organism not typed; conditions: Table 4; clinical strain; first/second value where not identical
Experimental: as §1, §2, §3, §4, §5

[12] = test system: Alternaria alternata JCM5800; conditions: JCM5800
[13] = test system: Bacteroides fragilis JCM 11019; conditions: JCM 11019
[14] = Table 4, two tests, first/second value where not identical
[15] = Table 4, clinical strain, first/second value where not identical

| Molecule | MIC [1] [µg/mL] | MIC [2] [µg/mL] | MIC [3, 14] [µg/mL] | MIC [4] [µg/mL] | MIC [5, 14] [µg/mL] | MIC [6, 14] [µg/mL] | MIC [7, 14] [µg/mL] | MIC [8] [µg/mL] | MIC Micrococcus luteus [9] [µg/mL] | MIC Trichophyton mentagrophytes [10] [µg/mL] | MIC MSSA(i) [11] | MIC Alternaria alternata [12] [µg/mL] | MIC Staphylococcus aureus [4] [µg/mL] | MIC Staphylococcus epidermidis ([6]; JCM 2414) [µg/mL] | MIC Pseudomonas aeruginosa ([7]; ATCC 27853) [µg/mL] | MIC Escherichia coli [8] [µg/mL] | MIC Bacteroides fragilis [13] [µg/mL] | MIC Fusarium solani (Fusarium solani JCM11383; JCM11383) [µg/mL] | MIC Klebsiella pneumoniae [3, 14] | MIC Enterobacter aerogenes [5, 14] | other results |
| --- | --- | --- | --- | --- | --- | --- | --- | --- | --- | --- | --- | --- | --- | --- | --- | --- | --- | --- | --- | --- | --- |
| C[C@@H](O)[C@H]1C(=O)N2C(C(=O)O)=C(S[C@@H]3CN[C@H](C(=O)N(C)C)C3)[C@H](C)[C@H]12 [meropenem, reference compound] | 4 to 8 (≈ 10.4 to 20.9 µM) | < 4000 | < 4000 | 0.03 to 0.12 (≈ 0.0782 to 0.313 µM) | < 4000 | 0.03 to 0.12 (≈ 0.0782 to 0.313 µM) | 0.25 to 1 (≈ 0.652 to 2.61 µM) | 0.008 to 0.06 (≈ 0.0209 to 0.156 µM) | – | – | – | – | – | – | – | – | – | – | – | – | – |
| NC[C@H]1O[C@H](O[C@H]2[C@H](O)[C@@H](O[C@H]3O[C@H](CO)[C@@H](O)[C@H](N)[C@H]3O)[C@H](N)C[C@@H]2N)[C@H](N)C[C@@H]1O [tobramycin, reference compound] | 4 (≈ 8.56 µM) | > 16000 | < 4000 | 0.12 to 1 (≈ 0.257 to 2.14 µM) | < 4000 | 0.12 to 1 (≈ 0.257 to 2.14 µM) | 0.25 to 1 (≈ 0.535 to 2.14 µM) | 0.25 to 1 (≈ 0.535 to 2.14 µM) | – | – | – | – | – | – | – | – | – | – | – | – | – |
| GRLKRMGERLKRKIQKWIRW-NH2 [SRP-15] | – | – | – | – | – | – | – | – | 4 | 32 | 16/32 | 64 | 16 | 8 | 16 | 16 | 16 | – | – | – | MIC MSSA(ii) ([1]; methicillin-sensitive Staphylococcus (ii)): 16 µg/mL; MIC MRSA(i) ([2]; methicillin-resistant Staphylococcus (i)): 16 µg/mL; MIC Fusarium solani (Fusarium solani JCM11383; [14]): 16/32; MIC Klebsiella pneumoniae ([3]; JCM 1662): 16 µg/mL; MIC Enterobacter aerogenes ([5]; JCM 1235): 16 µg/mL |
| GRLKRMGKRLKRKIQKWARW-NH2 [SRP-14] | – | – | – | – | – | – | – | – | 4 | 16 | 16/32 | 32 | 16 | – | 16 | 16 | 128 | 4 | 16/128 | 16/32 | MIC MSSA(ii) [1, 15]: 16/32; MIC MRSA(i) [2, 15]: 16/32; MIC Staphylococcus epidermidis [6, 14]: 8/16 |
| IFLHRLKRMRKRLKRKLRLW-OH [SRP-7] | – | – | – | – | – | – | – | – | 2 | 32 | – | 32 | 32 | 8 | – | 32 | 128 | 8 | 16/64 | 16/64 | MIC Pseudomonas aeruginosa [7, 14]: 8/16 |
